“Also recorded” adds a separate entry of the source.
Tests used:
[1] = tested on: panel of proteases, kinases, and phosphatases; experiment: Pilot selectivity panel (Reaction Biology); type: biochemical; details: 10 µM compound
Procedure: (§1) Selectivity profiles vs. HATs, HDACs, SIRTs, HMTs, proteases, kinases, and phosphatases were performed by Reaction Biology Corporation (Malvern, PA; Fig. 3 and Supplementary Fig. 3). Percent activity was normalized to DMSO-only controls. Reference control compounds were included in each assay.
(§2) Relevant reaction procedures for each target class are briefly summarized (see reactionbiology.com for additional details). HATs: reaction buffer 50 mM Tris–HCl, pH 8.0, 50 mM NaCl, 0.1 mM EDTA, ± 1 mM DTT, 1 mM PMSF, 1% DMSO; substrate [^3H]-acetyl-CoA; reaction time 1 h; end-point measurement. […] HMTs: reaction buffer 50 mM Tris–HCl, pH 8.0, 0.01% Brij35, 1 mM EDTA, 1 mM DTT, 1 mM PMSF, 1% DMSO (EZH2); reaction buffer 50 mM Tris–HCl, pH 7.5, 5 mM EDTA, 0.01% Brij35, 5 mM DTT, 0.1 mM PMSF, 5% glycerol, 1% DMSO; 50 mM Tris–HCl, pH 8.5, 5 mM MgCl2, 50 mM NaCl, 0.01 Brij35, 1 mM DTT, 1% DMSO (G9a); methyl donor 1 μM S-Adenosyl-L-[methyl-^3H]-methionine; substrate 5 μM histone proteins or 0.05 mg mL^−1 nucleosomes; pre-incubation time 10–15 min; reaction time 0.5–1 h; end-point measurement. Caspases: reaction buffer 50 mM HEPES, pH 7.4, 1 M citrate, 100 mM NaCl, 0.01% CHAPS, 0.1 mM EDTA, 10 mM DTT; fluorogenic peptide substrate; pre-incubation time 10 min; reaction time 2 h; time-course measurement. Kinases: reaction buffer 20 mM HEPES, pH 7.5, 10 mM MgCl2, 1 mM EGTA, 0.02% Brij35, 0.02 mg mL^−1 BSA, 0.1 mM Na3VO4, 2 mM DTT, 1% DMSO; substrate [^33P]-ATP; reaction time 2 h; end-point measurement.

200 kinases = experiment: Expanded kinase profile (Cerep/Eurofins); type: biochemical; details: 10 μM compound
Procedure: Assays were performed using either homogeneous time-resolved fluorescence or LANCE® time-resolved-FRET formats (see cerep.fr for additional details). […] Reference control compounds were included in each assay.

Rtt109 = details: cited from earlier work
MOZ = details: @ 10 µM; ref 5 (Supplementary References); cited from earlier work
[2] = tested on: H3K27ac levels in HEK293T and MCF7 cells; experiment: Cellular H3K27ac western blot; type: cell-based; details: 10 and 30 μM compound
Procedure: (§3) Cells were cultured in DMEM supplemented with 10% fetal bovine serum (Winsent), penicillin (100 U mL^−1), and streptomycin (100 µg mL^−1). Compounds dissolved in DMSO or matching DMSO-only controls were added to cells for indicated times. Compound effects in cells were determined as described[67] and are outlined below.
For western blot analyses, cells were lysed in lysis buffer (20 mM Tris–HCl, pH 8, 150 mM NaCl, 1 mM EDTA, 10 mM MgCl2, 0.5% Triton X-100 (v/v), 12.5 U mL^−1 benzonase (Sigma), complete EDTA-free protease inhibitor cocktail (Roche)). After 3 min incubation at RT, SDS was added to final 1% concentration (w/v). Total cell lysates were resolved in 4–12% Bis-Tris protein gels (Invitrogen) with MOPS buffer (Invitrogen) and transferred for 1.5 h (80 V) onto PVDF membrane (Millipore) in tris-glycine transfer buffer containing 20% methanol and 0.05% SDS. Blots were blocked for 1 h in blocking buffer (5% milk in 0.1% Tween 20/PBS) and incubated with respective primary antibodies: H3K27ac (1:1000, CST #8173), H3 (1:1000, Abcam #10799), p300 (1:2000, Bethyl #A300-358A), CBP (1:1000, Bethyl #A300-362A), actin (1:3000, Abcam #3280), α-tubulin (1:1000, 12G10 DHSB), and α-tubulin-K40ac (1:2000, Abcam #179484) in blocking buffer overnight at 4 °C. After five washes with 0.1% Tween 20/PBS, the blots were incubated with goat anti-rabbit IgG (IRDye 800-conjugated, LiCor #926-32211) and donkey anti-mouse IgG (IRDye 680-conjugated, LiCor #926-68072) antibodies (1:5000) in Odyssey Blocking Buffer (LiCor) for 1 h at RT and washed with 0.1% Tween 20/PBS. The signal was read on an Odyssey scanner (LiCor) at 800 and 700 nm. Representative uncropped images with molecular weight markers are provided (Supplementary Figs. 9, 12, 13).

SAS = tested on: SAS; set-up: method as in ref 5 (Supplementary References); details: @ 10 µM; ref 5 (Supplementary References); cited from earlier work
PCAF = molecular target: T1, PCAF (Homo sapiens, UniProt Q92831); experiment: PCAF activity in presence and absence of DTT; type: biochemical; details: 10 and 100 μM compound
T1 construct: Reaction Biology Corporation (assays run by this contract lab)
T1 sequence (Q92831 whole entry, species assumed): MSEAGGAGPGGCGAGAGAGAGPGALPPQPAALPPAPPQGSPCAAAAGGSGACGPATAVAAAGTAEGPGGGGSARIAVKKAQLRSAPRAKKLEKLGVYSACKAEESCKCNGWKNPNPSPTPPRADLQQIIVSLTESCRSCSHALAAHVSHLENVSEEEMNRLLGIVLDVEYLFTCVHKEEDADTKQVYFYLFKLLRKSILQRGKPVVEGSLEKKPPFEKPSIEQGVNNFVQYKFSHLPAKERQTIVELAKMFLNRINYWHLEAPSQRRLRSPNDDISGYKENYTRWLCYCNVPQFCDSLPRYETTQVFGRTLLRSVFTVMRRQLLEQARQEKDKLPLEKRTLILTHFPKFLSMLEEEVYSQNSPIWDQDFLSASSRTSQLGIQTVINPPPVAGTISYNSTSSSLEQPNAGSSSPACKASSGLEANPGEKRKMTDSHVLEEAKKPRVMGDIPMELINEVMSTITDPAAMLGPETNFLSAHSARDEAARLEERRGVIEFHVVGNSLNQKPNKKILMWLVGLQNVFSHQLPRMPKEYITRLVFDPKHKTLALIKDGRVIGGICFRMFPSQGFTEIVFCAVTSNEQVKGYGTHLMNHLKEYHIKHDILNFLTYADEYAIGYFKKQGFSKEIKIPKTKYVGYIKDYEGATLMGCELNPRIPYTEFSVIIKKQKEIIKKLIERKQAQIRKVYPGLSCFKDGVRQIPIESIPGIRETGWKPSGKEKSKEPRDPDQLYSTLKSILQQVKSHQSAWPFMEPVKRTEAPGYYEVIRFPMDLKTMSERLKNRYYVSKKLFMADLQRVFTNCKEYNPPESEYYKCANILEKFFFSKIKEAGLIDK
Procedure: as §1
as §2, with “Kinases: reaction buffer 20 mM HEPES, pH 7.5, 10 mM MgCl2, 1 mM EGTA, 0.02% Brij35, 0.02 mg mL^−1 BSA, 0.1 mM Na3VO4, 2 mM DTT, 1% DMSO; substrate [^33P]-ATP; reaction time 2 h; end-point measurement.” left out

MYST2 = details: cited from earlier work
HEK293T and MCF7 cells [3] = experiment: Membrane permeability (SYTOX green uptake); type: cell-based; details: for membrane permeability: Sytox green dead-cell dye uptake
Procedure: (§4) For cell growth analyses, cells were seeded in 96-well plates, treated with compounds for the indicated times, and monitored over time in a live cell Incucyte™ ZOOM imager (Essen Biosciences). To label apoptotic and dead cells, caspase 3/7 activatable DEVD recognition motif NucView™ 488 DNA intercalating dye (1:1000 dilution, Essen Biosciences) and SYTOX™ green nucleic acid stain (1:1000 dilution, Invitrogen) were used respectively, following manufacturer instructions.

[4] = tested on: caspase 3/7 activity in HEK293T and MCF7 cells; experiment: Live-cell caspase 3/7 activity; type: cell-based; details: 24 h after compound addition
Procedure: as §4

MOF = tested on: MOF; set-up: method as in ref 19, 26 (Supplementary References); details: original report; 26 (Supplementary References); cited from earlier work
p300 = molecular target: T2, p300 (Homo sapiens, UniProt Q09472); details: read-out: IC50 (µM), p300; original report; 22 (Supplementary References); cited from earlier work
T2 construct: Reaction Biology Corporation (assays run by this contract lab)
T2 sequence (Q09472 whole entry, species assumed): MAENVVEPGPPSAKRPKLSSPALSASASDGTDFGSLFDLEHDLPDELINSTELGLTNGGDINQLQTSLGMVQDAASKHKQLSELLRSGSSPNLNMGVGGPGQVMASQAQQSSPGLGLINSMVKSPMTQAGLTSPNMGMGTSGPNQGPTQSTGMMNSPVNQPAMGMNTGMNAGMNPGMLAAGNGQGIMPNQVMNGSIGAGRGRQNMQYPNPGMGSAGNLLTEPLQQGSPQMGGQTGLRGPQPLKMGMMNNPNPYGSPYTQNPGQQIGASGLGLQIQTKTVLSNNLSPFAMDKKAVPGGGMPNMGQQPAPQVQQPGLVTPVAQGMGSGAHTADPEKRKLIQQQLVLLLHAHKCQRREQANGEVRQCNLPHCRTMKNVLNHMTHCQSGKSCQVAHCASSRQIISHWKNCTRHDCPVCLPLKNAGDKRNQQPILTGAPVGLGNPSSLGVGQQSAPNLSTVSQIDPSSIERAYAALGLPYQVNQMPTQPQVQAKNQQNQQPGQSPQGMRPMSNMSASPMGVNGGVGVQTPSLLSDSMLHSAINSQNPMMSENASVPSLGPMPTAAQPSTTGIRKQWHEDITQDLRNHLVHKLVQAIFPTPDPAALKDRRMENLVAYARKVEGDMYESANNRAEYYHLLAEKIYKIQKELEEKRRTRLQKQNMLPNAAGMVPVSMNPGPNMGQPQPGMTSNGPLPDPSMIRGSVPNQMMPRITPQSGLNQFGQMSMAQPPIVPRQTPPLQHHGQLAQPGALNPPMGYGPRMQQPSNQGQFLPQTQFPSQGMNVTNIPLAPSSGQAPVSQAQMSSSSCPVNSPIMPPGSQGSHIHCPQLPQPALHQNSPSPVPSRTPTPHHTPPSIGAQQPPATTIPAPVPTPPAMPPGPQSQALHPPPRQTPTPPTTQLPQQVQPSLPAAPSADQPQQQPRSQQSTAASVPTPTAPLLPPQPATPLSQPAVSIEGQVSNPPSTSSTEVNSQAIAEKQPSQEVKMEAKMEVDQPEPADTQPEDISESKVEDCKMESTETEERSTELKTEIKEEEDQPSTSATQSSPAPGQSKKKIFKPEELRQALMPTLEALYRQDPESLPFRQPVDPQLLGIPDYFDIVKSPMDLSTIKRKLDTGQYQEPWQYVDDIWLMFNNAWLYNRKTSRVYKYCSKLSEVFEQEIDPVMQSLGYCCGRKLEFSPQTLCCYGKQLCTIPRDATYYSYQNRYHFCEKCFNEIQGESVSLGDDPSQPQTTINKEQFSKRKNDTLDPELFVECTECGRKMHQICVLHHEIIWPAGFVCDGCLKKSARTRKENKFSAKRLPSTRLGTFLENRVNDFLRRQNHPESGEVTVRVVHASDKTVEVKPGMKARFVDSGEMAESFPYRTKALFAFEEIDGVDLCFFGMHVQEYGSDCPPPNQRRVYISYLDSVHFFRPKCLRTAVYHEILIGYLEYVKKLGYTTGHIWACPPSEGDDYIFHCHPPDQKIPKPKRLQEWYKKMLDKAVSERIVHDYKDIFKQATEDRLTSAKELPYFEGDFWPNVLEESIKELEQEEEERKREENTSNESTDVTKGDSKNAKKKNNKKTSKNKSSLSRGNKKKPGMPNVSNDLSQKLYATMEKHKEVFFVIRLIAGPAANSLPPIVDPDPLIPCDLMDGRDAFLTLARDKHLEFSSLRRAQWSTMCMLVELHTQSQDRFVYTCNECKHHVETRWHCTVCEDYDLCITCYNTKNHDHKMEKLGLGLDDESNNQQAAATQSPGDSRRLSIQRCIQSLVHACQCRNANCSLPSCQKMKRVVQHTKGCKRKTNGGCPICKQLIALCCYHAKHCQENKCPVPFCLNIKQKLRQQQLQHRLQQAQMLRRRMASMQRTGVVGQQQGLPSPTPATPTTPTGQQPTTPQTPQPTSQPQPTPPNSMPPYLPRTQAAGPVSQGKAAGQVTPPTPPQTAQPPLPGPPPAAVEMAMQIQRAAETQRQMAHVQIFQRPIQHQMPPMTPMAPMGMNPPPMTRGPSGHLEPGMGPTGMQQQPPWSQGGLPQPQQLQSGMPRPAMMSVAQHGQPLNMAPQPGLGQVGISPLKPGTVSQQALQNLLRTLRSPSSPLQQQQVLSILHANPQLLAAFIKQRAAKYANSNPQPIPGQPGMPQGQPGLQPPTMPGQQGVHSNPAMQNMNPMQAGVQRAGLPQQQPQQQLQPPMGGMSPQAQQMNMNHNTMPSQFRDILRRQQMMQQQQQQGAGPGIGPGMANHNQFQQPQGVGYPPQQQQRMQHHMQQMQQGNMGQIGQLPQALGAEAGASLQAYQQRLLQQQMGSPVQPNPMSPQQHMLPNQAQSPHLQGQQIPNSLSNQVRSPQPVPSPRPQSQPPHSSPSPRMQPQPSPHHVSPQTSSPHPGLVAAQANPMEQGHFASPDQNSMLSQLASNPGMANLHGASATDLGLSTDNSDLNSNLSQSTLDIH

KAT5 = tested on: KAT5; set-up: method as in ref 22 (Supplementary References); details: original report; ref 22 (Supplementary References); cited from earlier work
MYST4 = details: original report; ref 22 (Supplementary References); cited from earlier work
HEK293T and MCF7 cells [5] = experiment: Cell proliferation by cell confluence; type: cell-based; details: 30 µM compound; MCF7 and HEK293T cells
Procedure: as §3, §4

Molecule: CC1=NN(c2ccc(C(=O)O)cc2)C(=O)/C1=C/c1ccc(-c2cc(C)c(C)cc2[N+](=O)[O-])o1 [Compound 1, C646]
- inhibition against the tested kinases and phosphatases [1]: low levels of inhibition
- proteases with > 50% inhibition ([1]; 17 proteases): 7 out of 17
- kinases with >50% inhibition (200 kinases): 26 out of 200
- % inhibition, Rtt109 (Rtt109; @ 10 µM, ref 5 (Supplementary References)): < 10%
- % inhibition, MOZ (MOZ): < 10%
- cellular H3K27ac levels [2]: decreased
- % inhibition, SAS (SAS): < 10%

Molecule: O=c1c2cccnc2sn1Cc1ccc(C(F)(F)F)cc1 [Compound 3, PU141]
- activity vs. most of the targets tested ([1]; proteases, kinases, phosphatases): little activity
- inhibition of PCAF in the absence of DTT compared with DTT present (PCAF): notable exceptions

Molecule: Cc1cc(O)cc(C)c1C=C1C(=O)N(Cc2ccccc2)C(=O)N(Cc2ccccc2)C1=O [Compound 4, EML425]
- cellular H3K27ac levels [2]: did not perturb

Molecule: COc1ccc(S(=O)(=O)ON=C2C=C(C)C(=O)C(C)=C2)cc1 [Compound 5, L002]
- inhibition of PCAF in the absence of DTT compared with DTT present (PCAF): notable exceptions
- % inhibition, MYST2 (MYST2; @ 100 µM, HotSpot, ref 9 (Supplementary References)): 1%
- cellular H3K27ac levels [2]: decreased

Molecule: O=C1/C(=C/c2ccc(O)c(Br)c2)CCC/C1=C\c1ccc(O)c(Br)c1 [Compound 12, HAT inhibitor II]
- membrane permeability (HEK293T and MCF7 cells [3]): increase; also recorded: dose-dependent increases
- caspase 3/7 activity [4]: induce; also recorded: dose-dependent increases

Molecule: CCCCCCCCCCCCCCCc1cccc(O)c1C(=O)O [Compound 14, Anacardic acid]
- cellular H3K27ac levels [2]: did not perturb

Molecule: CCCCCCCc1ccc(CCc2cccc(O)c2C(=O)O)cc1 [Compound 15, MG 149]
- IC50 (MOF): 47 µM

Molecule: Cc1cc2c(C(C)C)c(O)c(O)c(C=O)c2c(O)c1-c1c(C)cc2c(C(C)C)c(O)c(O)c(C=O)c2c1O [Compound 16, Gossypol]
- IC50 (p300): ~25 µM

Molecule: COc1ccc(/C(Cl)=C(/C=O)c2ccc(OC)cc2)cc1 [Compound 18, Windorphen]
- IC50 (KAT5): > 100 µM
- IC50 (MYST4): > 100 µM
- IC50 (MYST2; original report, ref 22 (Supplementary References)): > 100 µM

Molecule: CCCC1(c2ccccc2)NC(=O)N(CC(=O)N(C)Cc2c(F)cccc2Cl)C1=O (stereo not shown) [Compound 21, N-[(2-chloro-6-fluorophenyl)methyl]-2-(2,5-dioxo-4-phenyl-4-propylimidazolidin-1-yl)-N-methylacetamide]
- IC50 (Rtt109; original report, ref 25 (Supplementary References)): 0.056 µM

Molecule: Plumbagin [Compound 8]
- cell death by cell confluence studies (HEK293T and MCF7 cells [5]): causes cell death
- cytotoxicity by membrane integrity studies (HEK293T and MCF7 cells [3]; 30 µM compound, MCF7 cells): cytotoxic
- membrane permeability (HEK293T and MCF7 cells [3]): increase; also recorded: dose-dependent increases
